Assay results taken from patent US9321790B2, “Pyrimidinone derivatives as antimalarial agents” (SANOFI, priority 2012, dated 2016).

Columns and labels:
[1] = system: Plasmodium falciparum (strain NF54); test: Antimalarial activity test: growth of Plasmodium falciparum in infected human erythrocytes, 3H-hypoxanthine incorporation; assay type: cell-based; settings: strain NF54 sensitive to chloroquine, 72 h total incubation
Description: The compounds according to the invention underwent pharmacological trials to determine their inhibitory effect on the growth of Plasmodium falciparum (strain NF54 sensitive to inhibition with chloroquine) in an in vitro test using infected human erythrocytes. The growth of the parasites is measured via the incorporation of tritiated hypoxanthine compared with the incorporation in the absence of drug. The tests are performed in 96-well microplates (Falcon™ 96-well microtiter plates, ref. No. 353072) in RPMI 1640 solutions (10.44 g/l) (without hypoxanthine) with HEPES (5.94 g/l), NaHCO3 (2.1 g/l), neomycin ([…])+AlbumaxR II (5 g/l) supplemented with human erythrocytes with a final hematocrit of 1.25% and a final parasitemia of 0.15%.
The stock solution of the compounds is prepared at 10 mg/mL in DMSO. For the test, fresh solutions at the desired concentrations are prepared in RPMI medium. For the test, 100 μl of compound are mixed with 100 μl of infected blood. For the determination of the IC50 values, the compounds are tested in twofold serial dilution.
The plates are incubated at 37° C. under a humid atmosphere with 93% N2, 4% CO2 and 3% O2. After 48 hours, 50 μl of ^3H-hypoxanthine (=0.5 μCi) in RPMI medium are added to each well and incubation is continued for a further 24 hours. Next, the plates are washed with distilled water and the cell lyzate is transferred onto fiberglass filters. The filters are dried and the radioactivity is determined by liquid scintillation. The results in cpm are converted into percentages of inhibition. The inhibitory activity is given by the concentration that inhibits 50% of the growth of the parasite relative to a control without compound.

human PI3Kα = human PI3Kα (Homo sapiens (Human), UniProt P42336); test: Human PI3Kα activity test (luciferin/luciferase ATP consumption, KinaseGlo); assay type: biochemical; settings: PI3Kα (p110α/p85α), 50 μM PIP2, 2 μM ATP, 90 minutes; read-out: IC50 Human PI3Kα
Description: The test uses a luciferin/luciferase system to measure the concentration of ATP and its consumption during the enzymatic reaction.
After 90 minutes, the reaction is quenched by adding 20 μl/well of KinaseGlo reagent (Promega V6713). After 10 minutes in the dark, the luminescence is read using a PHERAStar microplate reader (reading at 0.8 sec/well).

[2] = Plasmodium falciparum, Erythrocyte

Sequence of human PI3Kα (P42336 whole entry): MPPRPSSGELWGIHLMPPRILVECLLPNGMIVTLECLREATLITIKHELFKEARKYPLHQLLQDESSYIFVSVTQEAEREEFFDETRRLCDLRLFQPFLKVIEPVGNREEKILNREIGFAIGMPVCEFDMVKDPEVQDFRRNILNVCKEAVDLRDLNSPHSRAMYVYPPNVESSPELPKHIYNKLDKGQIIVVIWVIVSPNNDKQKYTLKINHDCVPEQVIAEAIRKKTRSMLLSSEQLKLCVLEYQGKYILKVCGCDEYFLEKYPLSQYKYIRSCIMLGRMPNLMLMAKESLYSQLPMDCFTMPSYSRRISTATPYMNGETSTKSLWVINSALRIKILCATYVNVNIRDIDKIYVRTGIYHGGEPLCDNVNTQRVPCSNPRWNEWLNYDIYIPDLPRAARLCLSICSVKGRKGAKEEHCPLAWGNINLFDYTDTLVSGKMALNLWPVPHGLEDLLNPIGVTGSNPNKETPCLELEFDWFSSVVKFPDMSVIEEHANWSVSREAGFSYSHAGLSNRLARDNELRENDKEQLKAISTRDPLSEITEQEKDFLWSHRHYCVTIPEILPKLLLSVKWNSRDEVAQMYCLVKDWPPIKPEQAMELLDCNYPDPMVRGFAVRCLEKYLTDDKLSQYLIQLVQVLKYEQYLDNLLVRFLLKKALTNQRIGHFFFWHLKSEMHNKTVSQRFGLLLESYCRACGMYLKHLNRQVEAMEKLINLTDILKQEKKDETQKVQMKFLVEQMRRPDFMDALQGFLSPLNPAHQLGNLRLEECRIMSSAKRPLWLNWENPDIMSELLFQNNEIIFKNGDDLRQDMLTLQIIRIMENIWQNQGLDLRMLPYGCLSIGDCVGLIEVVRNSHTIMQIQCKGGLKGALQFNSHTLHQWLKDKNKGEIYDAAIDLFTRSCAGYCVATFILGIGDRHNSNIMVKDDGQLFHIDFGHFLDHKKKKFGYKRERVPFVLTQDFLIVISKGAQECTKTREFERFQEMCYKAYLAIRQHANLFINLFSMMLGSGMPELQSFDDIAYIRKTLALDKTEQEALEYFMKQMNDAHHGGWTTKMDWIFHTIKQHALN
Sequence of human PI3Kα (P27986 whole entry partner): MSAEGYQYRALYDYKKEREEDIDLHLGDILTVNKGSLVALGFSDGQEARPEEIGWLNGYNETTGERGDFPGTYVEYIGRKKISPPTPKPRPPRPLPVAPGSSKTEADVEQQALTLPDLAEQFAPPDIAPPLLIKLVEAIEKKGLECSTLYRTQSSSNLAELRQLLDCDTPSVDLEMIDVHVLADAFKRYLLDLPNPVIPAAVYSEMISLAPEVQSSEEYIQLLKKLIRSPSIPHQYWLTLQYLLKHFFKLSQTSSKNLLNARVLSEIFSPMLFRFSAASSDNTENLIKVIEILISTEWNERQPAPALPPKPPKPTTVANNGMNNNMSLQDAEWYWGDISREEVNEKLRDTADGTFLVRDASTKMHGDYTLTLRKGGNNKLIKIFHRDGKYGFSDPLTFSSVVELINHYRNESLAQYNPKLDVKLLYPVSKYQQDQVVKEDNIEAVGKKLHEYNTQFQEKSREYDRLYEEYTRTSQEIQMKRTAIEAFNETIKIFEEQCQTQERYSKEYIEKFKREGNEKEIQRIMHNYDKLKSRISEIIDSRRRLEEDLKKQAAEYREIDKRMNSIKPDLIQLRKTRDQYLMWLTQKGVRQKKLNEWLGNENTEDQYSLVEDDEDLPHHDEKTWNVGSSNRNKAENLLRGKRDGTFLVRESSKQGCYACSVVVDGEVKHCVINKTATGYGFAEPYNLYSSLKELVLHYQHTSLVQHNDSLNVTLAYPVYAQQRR

Row | Compound | IC50 [1, 2] | IC50 (human PI3Kα) | IC50 [1]
1 | CC(=O)N1CCC(CN2c3nc(N4C[C@@H]5C[C@H]4CO5)cc(=O)n3CC[C@H]2C(F)(F)F)CC1 [Compound 94, (8S)-9-(1-Acetylpiperid-4-ylmethyl)-2-(1S,4S)-2-oxa-5-azabicyclo[2.2.1]hept-5-yl-8-trifluoromethyl-6,7,8,9-tetrahydropyrimido[1,2-a]pyrimidin-4-one] | 9 nM | 130 nM | –
2 | Cc1c(C(=O)CN2c3nc(N4C[C@@H]5C[C@H]4CO5)cc(=O)n3CC[C@H]2C(F)(F)F)cnc(N)c1C [Compound 36, (8S)-9-[2-(6-Amino-4,5-dimethylpyrid-3-yl)-2-oxoethyl]-2-(1S,4S)-2-oxa-5-azabicyclo[2.2.1]hept-5-yl-8-trifluoromethyl-6,7,8,9-tetrahydropyrimido[1,2-a]pyrimidin-4-one] | 240 nM | > 10000 nM | –
3 | CC(C)(CN1c2nc(N3C[C@@H]4C[C@H]3CO4)cc(=O)n2CC[C@H]1C(F)(F)F)c1ccncc1 [Compound 1, (8S)-9-(2-methyl-2-pyrid-4-ylpropyl)-2-(1S,4S)-2-oxa-5-azabicyclo[2.2.1]hept-5-yl-8-trifluoromethyl-6,7,8,9-tetrahydropyrimido[1,2-a]pyrimidin-4-one] | 20 nM | 3130 nM | –
4 | N#Cc1cccc(C(=O)CN2c3nc(N4C[C@@H]5C[C@H]4CO5)cc(=O)n3CC[C@H]2C(F)(F)F)c1 [Compound 55, 3-[2-((S)-8-(1S,4S)-2-Oxa-5-azabicyclo[2.2.1]hept-5-yl-6-oxo-2-trifluoromethyl-3,4-dihydro-2H,6H-pyrimido[1,2-a]pyrimidin-1-yl)acetyl]benzonitrile] | – | > 10000 nM | 28 nM
5 | Cc1ncoc1C(=O)CN1c2nc(N3C[C@@H]4C[C@H]3CO4)cc(=O)n2CC[C@H]1C(F)(F)F [Compound 39, (8S)-9-[2-(4-Methyloxazol-5-yl)-2-oxoethyl]-2-(1S,4S)-2-oxa-5-azabicyclo[2.2.1]hept-5-yl-8-trifluoromethyl-6,7,8,9-tetrahydropyrimido[1,2-a]pyrimidin-4-one] | 98 nM | > 10000 nM | –
6 | Cc1noc(C)c1C(=O)CN1c2nc(N3C[C@@H]4C[C@H]3CO4)cc(=O)n2CC[C@H]1C(F)(F)F [Compound 53, (8S)-9-[2-(3,5-dimethylisoxazol-4-yl)-2-oxoethyl]-2-(1S,4S)-2-oxa-5-azabicyclo[2.2.1]hept-5-yl-8-trifluoromethyl-6,7,8,9-tetrahydropyrimido[1,2-a]pyrimidin-4-one] | 870 nM | > 10000 nM | –
7 | O=C(CN1c2nc(N3C[C@@H]4C[C@H]3CO4)cc(=O)n2CC[C@H]1C(F)(F)F)c1cccnc1 [Compound 7, (8S)-2-(1S,4S)-2-oxa-5-azabicyclo[2.2.1]hept-5-yl-9-(2-oxo-2-pyrid-3-ylethyl)-8-trifluoromethyl-6,7,8,9-tetrahydropyrimido[1,2-a]pyrimidin-4-one] | 10 nM | ≥ 10000 nM | –
8 | Cc1ncsc1C(=O)CN1c2nc(N3C[C@@H]4C[C@H]3CO4)cc(=O)n2CC[C@H]1C(F)(F)F [Compound 43, (8S)-9-[2-(4-methylthiazol-5-yl)-2-oxoethyl]-2-(1S,4S)-2-oxa-5-azabicyclo[2.2.1]hept-5-yl-8-trifluoromethyl-6,7,8,9-tetrahydropyrimido[1,2-a]pyrimidin-4-one] | 42 nM | > 10000 nM | –
9 | Cc1ncccc1C(=O)CN1c2nc(N3C[C@@H]4C[C@H]3CO4)cc(=O)n2CC[C@H]1C(F)(F)F [Compound 19, (8S)-9-[2-(2-methylpyrid-3-yl)-2-oxoethyl]-2-(1S,4S)-2-oxa-5-azabicyclo[2.2.1]hept-5-yl-8-trifluoromethyl-6,7,8,9-tetrahydropyrimido[1,2-a]pyrimidin-4-one] | 24 nM | > 10000 nM | –
10 | C[C@@]1(C(F)(F)F)Cn2c(nc(N3C[C@@H]4C[C@H]3CO4)cc2=O)N1CC(=O)c1cccnc1 [Compound 21, 2-methyl-7-(1S,4S)-2-oxa-5-azabicyclo[2.2.1]hept-5-yl-1-(2-oxo-2-pyrid-3-ylethyl)-2-((S)-trifluoromethyl)-2,3-dihydro-1H-imidazo[1,2-a]pyrimidin-5-one] | 82 nM | > 10000 nM | –
11 | CCOC(=O)N1CCC(C(=O)CN2c3nc(N4C[C@@H]5C[C@H]4CO5)cc(=O)n3CC[C@H]2C(F)(F)F)CC1 [Compound 91, 4-[2-((S)-8-(1S,4S)-2-Oxa-5-azabicyclo[2.2.1]hept-5-yl-6-oxo-2-trifluoromethyl-3,4-dihydro-2H,6H-pyrimido[1,2-a]pyrimidin-1-yl)acetyl]piperidine-1-carboxylic acid ethyl ester] | – | > 10000 nM | 25 nM
12 | O=C(CN1c2nc(N3C[C@@H]4C[C@H]3CO4)cc(=O)n2CC[C@H]1C(F)(F)F)c1ccc(NCCO)nc1 [Compound 14, (8S)-9-{2-[6-(2-hydroxyethylamino)pyrid-3-yl]-2-oxoethyl}-2-(1S,4S)-2-oxa-5-azabicyclo[2.2.1]hept-5-yl-8-trifluoromethyl-6,7,8,9-tetrahydropyrimido[1,2-a]pyrimidin-4-one] | 70 nM | > 10000 nM | –
13 | O=C(CN1c2nc(N3C[C@@H]4C[C@H]3CO4)cc(=O)n2CC[C@H]1C(F)(F)F)N1CCOCC1 [Compound 110, (8S)-9-(2-Morpholin-4-yl-2-oxoethyl)-2-(1S,4S)-2-oxa-5-azabicyclo[2.2.1]hept-5-yl-8-trifluoromethyl-6,7,8,9-tetrahydropyrimido[1,2-a]pyrimidin-4-one] | 330 nM | > 10000 nM | –
14 | O=C(CN1c2nc(N3C[C@@H]4C[C@H]3CO4)cc(=O)n2CC[C@H]1C(F)(F)F)c1ccncc1 [Compound 2, (8S)-2-(1S,4S)-2-oxa-5-azabicyclo[2.2.1]hept-5-yl-9-(2-oxo-2-pyrid-4-ylethyl)-8-trifluoromethyl-6,7,8,9-tetrahydropyrimido[1,2-a]pyrimidin-4-one] | 15 nM | ≥ 10000 nM | –
15 | Cn1cncc1C(=O)CN1c2nc(N3C[C@@H]4C[C@H]3CO4)cc(=O)n2CC[C@H]1C(F)(F)F [Compound 66, (8S)-9-[2-(3-Methyl-3H-imidazol-4-yl)-2-oxoethyl]-2-(1S,4S)-2-oxa-5-azabicyclo[2.2.1]hept-5-yl-8-trifluoromethyl-6,7,8,9-tetrahydropyrimido[1,2-a]pyrimidin-4-one] | 73 nM | > 10000 nM | –
16 | O=c1cc(N2C[C@@H]3C[C@H]2CO3)nc2n1CC[C@@H](C(F)(F)F)N2CCC1(O)CCCC1 [Compound 100, (8S)-9-[2-(1-Hydroxycyclopentyl)ethyl]-2-(1S,4S)-2-oxa-5-azabicyclo[2.2.1]hept-5-yl-8-trifluoromethyl-6,7,8,9-tetrahydropyrimido[1,2-a]pyrimidin-4-one] | 9 nM | 1980 nM | –
17 | O=C(CN1c2nc(N3C[C@@H]4C[C@H]3CO4)cc(=O)n2CC[C@H]1C(F)(F)F)c1ccc(NC2CC2)nc1 [Compound 22, (8S)-9-[2-(6-Cyclopropylaminopyrid-3-yl)-2-oxoethyl]-2-(1S,4S)-2-oxa-5-azabicyclo[2.2.1]hept-5-yl-8-trifluoromethyl-6,7,8,9-tetrahydropyrimido[1,2-a]pyrimidin-4-one] | > 200 nM | > 10000 nM | –
18 | COc1ccc(CCN2c3nc(N4C[C@@H]5C[C@H]4CO5)cc(=O)n3C[C@@]2(C)C(F)(F)F)cc1 [Compound 10, (8S)-1-[2-(4-Methoxyphenyl)ethyl]-2-methyl-7-(1S,4S)-2-oxa-5-azabicyclo[2.2.1]hept-5-yl-2-trifluoromethyl-2,3-dihydro-1H-imidazo[1,2-a]pyrimidin-5-one] | – | 7200 nM | 11 nM
19 | CC(=O)N1CCC(C(=O)CN2c3nc(N4C[C@@H]5C[C@H]4CO5)cc(=O)n3CC[C@H]2C(F)(F)F)CC1 [Compound 119, (8S)-9-[2-(1-Acetylpiperid-4-yl)-2-oxoethyl]-2-(1S,4S)-2-oxa-5-azabicyclo[2.2.1]hept-5-yl-8-trifluoromethyl-6,7,8,9-tetrahydropyrimido[1,2-a]pyrimidin-4-one] | 30 nM | > 10000 nM | –
20 | O=C(CN1c2nc(N3CC4CCC(C3)O4)cc(=O)n2CC[C@H]1C(F)(F)F)c1ccccn1 [Compound 88, (8S)-2-(8-Oxa-3-azabicyclo[3.2.1]oct-3-yl)-9-(2-oxo-2-pyrid-2-ylethyl)-8-trifluoromethyl-6,7,8,9-tetrahydropyrimido[1,2-a]pyrimidin-4-one] | 140 nM | 1300 nM | –
21 | CN(CCO)c1ccc(C(=O)CN2c3nc(N4C[C@@H]5C[C@H]4CO5)cc(=O)n3CC[C@H]2C(F)(F)F)cn1 [Compound 34, (8S)-9-(2-{6-[(2-Hydroxyethyl)methylamino]pyrid-3-yl}-2-oxoethyl)-2-(1S,4S)-2-oxa-5-azabicyclo[2.2.1]hept-5-yl-8-trifluoromethyl-6,7,8,9-tetrahydropyrimido[1,2-a]pyrimidin-4-one] | > 200 nM | > 10000 nM | –
